In ChEMBL document CHEMBL1201862, “PubChem BioAssay data set” (2004):
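A five-concentration, 48-hour dose response in 96-well plates underlies each endpoint, interpolated linearly between surrounding concentrations. Here, GI50 denotes the concentration required for 50% inhibition of growth.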 Calls of active or inactive are those of the source. Rule as the data show it: active = GI50 up to about 1.1 µM and inactive = higher.

Columns and labels:
Assay in all cases: DTP human tumour cell line panel, 48 h
SNB-19 = tested on: SNB-19
ACHN = tested on: ACHN
MDA-MB-435 = tested on: MDA-MB-435
HCT-15 = tested on: HCT-15
SW-620 = tested on: SW-620
UACC-257 = tested on: UACC-257
NCI-H522 = tested on: NCI-H522
786-0 = tested on: 786-0
Hs-578T = tested on: Hs-578T
OVCAR-3 = tested on: OVCAR-3
CCRF-CEM = tested on: CCRF-CEM
HOP-92 = tested on: HOP-92
MDA-N = tested on: MDA-N
EKVX = tested on: EKVX
SK-OV-3 = tested on: SK-OV-3
SF-539 = tested on: SF-539
HCC 2998 = tested on: HCC 2998
OVCAR-8 = tested on: OVCAR-8
UO-31 = tested on: UO-31
HOP-62 = tested on: HOP-62
U-251 = tested on: U-251
MCF7 = tested on: MCF7
MOLT-4 = tested on: MOLT-4
SF-295 = tested on: SF-295
SK-MEL-5 = tested on: SK-MEL-5
A549 = tested on: A549
HCT-116 = tested on: HCT-116
COLO 205 = tested on: COLO 205
OVCAR-5 = tested on: OVCAR-5
PC-3 = tested on: PC-3
M14 = tested on: M14
NCI-H226 = tested on: NCI-H226
SF-268 = tested on: SF-268
BT-549 = tested on: BT-549
KM12 = tested on: KM12
SN12C = tested on: SN12C
OVCAR-4 = tested on: OVCAR-4
UACC-62 = tested on: UACC-62
RXF 393 = tested on: RXF 393
K562 = tested on: K562
SNB-75 = tested on: SNB-75
DU-145 = tested on: DU-145
RPMI-8226 = tested on: RPMI-8226
NCI/ADR-RES = tested on: NCI/ADR-RES
Malme-3M = tested on: Malme-3M
T47D = tested on: T47D
LOX IMVI = tested on: LOX IMVI
SK-MEL-2 = tested on: SK-MEL-2
MDA-MB-231 = tested on: MDA-MB-231
SK-MEL-28 = tested on: SK-MEL-28
NCI-H23 = tested on: NCI-H23
TK-10 = tested on: TK-10
HL-60 = tested on: HL-60
CAKI-1 = tested on: CAKI-1
HT-29 = tested on: HT-29
IGROV-1 = tested on: IGROV-1
NCI-H460 = tested on: NCI-H460
A498 = tested on: A498

Structure (SMILES): CCOC(=O)C(NC(=O)c1ccccc1)(Nc1cc(C)on1)C(F)(F)F (stereo not given)
- GI50 (SNB-19): > 100 µM (inactive)
- GI50 (ACHN): > 100 µM (inactive)
- GI50 (MDA-MB-435): > 100 µM (inactive)
- GI50 (HCT-15): > 100 µM
- GI50 (SW-620): > 100 µM (inactive)
- GI50 (UACC-257): > 100 µM (inactive)
- GI50 (NCI-H522): > 100 µM (inactive)
- GI50 (786-0): > 100 µM (inactive)
- GI50 (Hs-578T): > 100 µM (inactive)
- GI50 (OVCAR-3): > 100 µM (inactive)
- GI50 (CCRF-CEM): > 100 µM (inactive)
- GI50 (HOP-92): > 100 µM (inactive)
- GI50 (MDA-N): > 100 µM (inactive)
- GI50 (EKVX): > 100 µM (inactive)
- GI50 (SK-OV-3): > 100 µM (inactive)
- GI50 (SF-539): > 100 µM (inactive)
- GI50 (HCC 2998): > 100 µM (inactive)
- GI50 (OVCAR-8): > 100 µM (inactive)
- GI50 (UO-31): > 100 µM (inactive)
- GI50 (HOP-62): > 100 µM (inactive)
- GI50 (U-251): > 100 µM (inactive)
- GI50 (MCF7): > 100 µM (inactive)
- GI50 (MOLT-4): > 100 µM (inactive)
- GI50 (SF-295): > 100 µM (inactive)
- GI50 (SK-MEL-5): > 100 µM (inactive)
- GI50 (A549): > 100 µM (inactive)
- GI50 (HCT-116): > 100 µM (inactive)
- GI50 (COLO 205): > 100 µM (inactive)
- GI50 (OVCAR-5): > 100 µM (inactive)
- GI50 (PC-3): > 100 µM (inactive)
- GI50 (M14): > 100 µM (inactive)
- GI50 (NCI-H226): > 100 µM (inactive)
- GI50 (SF-268): > 100 µM (inactive)
- GI50 (BT-549): > 100 µM (inactive)
- GI50 (KM12): > 100 µM (inactive)
- GI50 (SN12C): > 100 µM (inactive)
- GI50 (OVCAR-4): > 100 µM (inactive)
- GI50 (UACC-62): > 100 µM (inactive)
- GI50 (RXF 393): > 100 µM (inactive)
- GI50 (K562): > 100 µM (inactive)
- GI50 (SNB-75): > 100 µM (inactive)
- GI50 (DU-145): > 100 µM (inactive)
- GI50 (RPMI-8226): > 100 µM (inactive)
- GI50 (NCI/ADR-RES): > 100 µM (inactive)
- GI50 (Malme-3M): > 100 µM (inactive)
- GI50 (T47D): > 100 µM (inactive)
- GI50 (LOX IMVI): > 100 µM (inactive)
- GI50 (SK-MEL-2): > 100 µM (inactive)
- GI50 (MDA-MB-231): 10.9 µM (inactive)
- GI50 (SK-MEL-28): > 100 µM (inactive)
- GI50 (NCI-H23): > 100 µM (inactive)
- GI50 (TK-10): > 100 µM (inactive)
- GI50 (HL-60): > 100 µM (inactive)
- GI50 (CAKI-1): > 100 µM (inactive)
- GI50 (HT-29): > 100 µM (inactive)
- GI50 (IGROV-1): > 100 µM (inactive)

Structure (SMILES): CC(C)(C)[Si](C)(C)OCCCCC1CC2(S(=O)(=O)C3=CC=C=C=C3)ON1CC2S(=O)(=O)c1ccccc1 (stereo not given)
- GI50 (SNB-19): > 100 µM (inactive)
- GI50 (ACHN): > 100 µM (inactive)
- GI50 (MDA-MB-435): > 100 µM (inactive)
- GI50 (HCT-15): > 100 µM
- GI50 (SW-620): > 100 µM (inactive)
- GI50 (UACC-257): 84.9 µM (inactive)
- GI50 (786-0): > 100 µM (inactive)
- GI50 (Hs-578T): > 100 µM (inactive)
- GI50 (OVCAR-3): > 100 µM (inactive)
- GI50 (HOP-92): > 100 µM (inactive)
- GI50 (NCI-H460): > 100 µM (inactive)
- GI50 (MDA-N): > 100 µM (inactive)
- GI50 (A498): > 100 µM (inactive)
- GI50 (EKVX): > 100 µM (inactive)
- GI50 (SK-OV-3): > 100 µM (inactive)
- GI50 (SF-539): > 100 µM (inactive)
- GI50 (HCC 2998): > 100 µM (inactive)
- GI50 (OVCAR-8): > 100 µM (inactive)
- GI50 (UO-31): > 100 µM (inactive)
- GI50 (HOP-62): > 100 µM (inactive)
- GI50 (U-251): > 100 µM (inactive)
- GI50 (MCF7): > 100 µM (inactive)
- GI50 (MOLT-4): > 100 µM (inactive)
- GI50 (SK-MEL-5): > 100 µM (inactive)
- GI50 (A549): > 100 µM (inactive)
- GI50 (HCT-116): > 100 µM (inactive)
- GI50 (COLO 205): > 100 µM (inactive)
- GI50 (OVCAR-5): > 100 µM (inactive)
- GI50 (M14): > 100 µM (inactive)
- GI50 (NCI-H226): > 100 µM (inactive)
- GI50 (SF-268): > 100 µM (inactive)
- GI50 (BT-549): > 100 µM (inactive)
- GI50 (KM12): > 100 µM (inactive)
- GI50 (SN12C): > 100 µM (inactive)
- GI50 (OVCAR-4): > 100 µM (inactive)
- GI50 (UACC-62): > 100 µM (inactive)
- GI50 (RXF 393): > 100 µM (inactive)
- GI50 (K562): > 100 µM (inactive)
- GI50 (SNB-75): > 100 µM (inactive)
- GI50 (DU-145): > 100 µM (inactive)
- GI50 (RPMI-8226): > 100 µM (inactive)
- GI50 (NCI/ADR-RES): > 100 µM (inactive)
- GI50 (T47D): > 100 µM (inactive)
- GI50 (SK-MEL-2): > 100 µM (inactive)
- GI50 (MDA-MB-231): > 100 µM (inactive)
- GI50 (SK-MEL-28): > 100 µM (inactive)
- GI50 (NCI-H23): > 100 µM (inactive)
- GI50 (TK-10): > 100 µM (inactive)
- GI50 (HT-29): > 100 µM (inactive)
- GI50 (IGROV-1): > 100 µM (inactive)

Structure (SMILES): COc1ccc(Cc2c(N)[nH]c(=O)n(C)c2=O)cc1
- GI50 (SNB-19): > 100 µM (inactive)
- GI50 (ACHN): > 100 µM (inactive)
- GI50 (MDA-MB-435): > 100 µM (inactive)
- GI50 (HCT-15): 92.7 µM
- GI50 (SW-620): > 100 µM (inactive)
- GI50 (UACC-257): > 100 µM (inactive)
- GI50 (NCI-H522): > 100 µM (inactive)
- GI50 (786-0): > 100 µM (inactive)
- GI50 (Hs-578T): 45.1 µM (inactive)
- GI50 (OVCAR-3): > 100 µM (inactive)
- GI50 (HOP-92): 3.9 µM (inactive)
- GI50 (NCI-H460): 72.1 µM (inactive)
- GI50 (MDA-N): > 100 µM (inactive)
- GI50 (A498): > 100 µM (inactive)
- GI50 (EKVX): 10.6 µM (inactive)
- GI50 (SK-OV-3): > 100 µM (inactive)
- GI50 (SF-539): > 100 µM (inactive)
- GI50 (HCC 2998): > 100 µM (inactive)
- GI50 (OVCAR-8): > 100 µM (inactive)
- GI50 (UO-31): 5 µM (inactive)
- GI50 (HOP-62): 31.1 µM (inactive)
- GI50 (U-251): > 100 µM (inactive)
- GI50 (MCF7): 5.75 µM (inactive)
- GI50 (SF-295): > 100 µM (inactive)
- GI50 (SK-MEL-5): > 100 µM (inactive)
- GI50 (A549): > 100 µM (inactive)
- GI50 (HCT-116): > 100 µM (inactive)
- GI50 (COLO 205): > 100 µM (inactive)
- GI50 (OVCAR-5): > 100 µM (inactive)
- GI50 (PC-3): 97.3 µM (inactive)
- GI50 (M14): > 100 µM (inactive)
- GI50 (NCI-H226): > 100 µM (inactive)
- GI50 (SF-268): 34.6 µM (inactive)
- GI50 (BT-549): > 100 µM (inactive)
- GI50 (KM12): > 100 µM (inactive)
- GI50 (SN12C): 42.8 µM (inactive)
- GI50 (OVCAR-4): 89.7 µM (inactive)
- GI50 (UACC-62): > 100 µM (inactive)
- GI50 (RXF 393): > 100 µM (inactive)
- GI50 (K562): > 100 µM (inactive)
- GI50 (SNB-75): 11.9 µM (inactive)
- GI50 (RPMI-8226): > 100 µM (inactive)
- GI50 (NCI/ADR-RES): > 100 µM (inactive)
- GI50 (Malme-3M): > 100 µM (inactive)
- GI50 (T47D): > 100 µM (inactive)
- GI50 (LOX IMVI): 56 µM (inactive)
- GI50 (SK-MEL-2): > 100 µM (inactive)
- GI50 (MDA-MB-231): 92.7 µM (inactive)
- GI50 (SK-MEL-28): > 100 µM (inactive)
- GI50 (NCI-H23): > 100 µM (inactive)
- GI50 (TK-10): > 100 µM (inactive)
- GI50 (CAKI-1): 96.6 µM (inactive)
- GI50 (HT-29): 47.5 µM (inactive)
- GI50 (IGROV-1): > 100 µM (inactive)
